Source: ChEMBL document CHEMBL5308541, “MAIP: An Open-Source Tool to Enrich High-Throughput Screening Output and Identify Novel, Druglike Molecules with Antimalarial Activity” (ACS Med Chem Lett, 2023)

Tests used:
[1] = Hit confirmation in dose-response curve in HepG2 cytotoxicity assay, at 72h; assay type: toxicity, cell-based, Homo sapiens; design: timepoint 72 hour; conditions: human, HepG2 cells
Plasmodium falciparum [2] = assay: Hit confirmation in dose-response curve in NF54 nanoGlo assay, at 12h; assay type: functional, organism-based, Erythrocyte; design: timepoint 12 hour; conditions: Plasmodium falciparum, NF54, Erythrocyte, 12 h
Plasmodium falciparum [3] = assay: Hit confirmation in dose-response curve in NF54 nanoGlo assay, at 72h; assay type: functional, organism-based, Erythrocyte; design: timepoint 72 hour; conditions: Plasmodium falciparum, NF54, Erythrocyte, 72 h
Plasmodium falciparum [4] = assay: Hit confirmation in dose-response curve in NF54 pLDH assay, at 72h; assay type: functional, organism-based, Erythrocyte; design: timepoint 72 hour; conditions: Plasmodium falciparum, NF54, Erythrocyte, 72 h
Plasmodium falciparum [5] = assay: Hit confirmation in dose-response curve in Dd2 pLDH assay, at 72h; assay type: functional, organism-based, Erythrocyte; design: timepoint 72 hour; conditions: Plasmodium falciparum, Dd2, Erythrocyte, 72 h

SMILES | IC50 (Plasmodium falciparum [2]) | IC50 (Plasmodium falciparum [3]) | IC50 (Plasmodium falciparum [4]) | IC50 (Plasmodium falciparum [5]) | IC50 at 72 h [1]
Cc1ccc2nc(CCCNC3CCN(c4cc(C)nc(N)n4)CC3)oc2c1 | 8.91 µM | 3.89 µM | 3.31 µM | 3.47 µM | > 10 µM
O=C1C2CCCCC2C(c2c(-c3ccccc3)[nH]c3ccccc23)N1Cc1ccccc1 (stereo not given) | > 10 µM | > 10 µM | > 10 µM | > 10 µM | > 10 µM
Cc1cnccc1NCCNCc1cnc(N2CCCCC2)nc1 | > 10 µM | 2.51 µM | 3.39 µM | 2.14 µM | > 10 µM
CCn1cc(-c2cccc(C(=O)N[C@@H](C)CN3CCc4ccccc4C3)c2)cn1 | > 10 µM | 8.32 µM | 9.12 µM | 9.77 µM | > 10 µM
O=C1CN(C(=O)c2ccnc3ccccc23)CCN1Cc1ccccc1F | > 10 µM | 6.31 µM | 14.5 µM | > 10 µM | > 10 µM
N#Cc1cccc(Cl)c1N1CCC(N2CCCC2)CC1 | > 10 µM | 3.02 µM | 3.89 µM | 3.8 µM | > 10 µM
CC(CNc1nc(NCC(C)N2CCOCC2)c2cc(Cl)ccc2n1)N1CCOCC1 (stereo not given) | > 10 µM | 1.74 µM | 1.91 µM | 1.58 µM | > 10 µM
C[C@H]1CCCN(CCNC(=O)c2ccc(-c3ccc4c(=O)[nH]ccc4c3)cc2)C1 | > 10 µM | 1.48 µM | 0.398 µM | 0.575 µM | > 10 µM
CN(c1ccccc1)c1ccc(CN2CCN([C@H]3CCNC3)CC2)cc1 | > 10 µM | 4.17 µM | 9.33 µM | 6.46 µM | > 10 µM
Cn1nnc(C(=O)N2CCCCC23CCCCCC3)n1 | > 10 µM | 2.24 µM | 5.5 µM | 2.29 µM | > 10 µM
Cc1cc(N2CCC(N(C)Cc3cc(-c4ccccc4)n[nH]3)CC2)nc(N)n1 | > 10 µM | 3.24 µM | 4.47 µM | 3.72 µM | > 10 µM
O=C(NCc1ccc(OC(F)(F)F)cc1)N(CCN1CCCC1)[C@H]1CCCNC1 | > 10 µM | 4.57 µM | 5.37 µM | 4.47 µM | > 10 µM
O=C(NCc1cccc(-c2cccnc2)c1)N[C@H]1CCN(C2CCCCC2)C1 | > 10 µM | 3.98 µM | 1.29 µM | 4.47 µM | > 10 µM
Cc1cc(O)c(Cl)cc1-c1ccc2nccc(N)c2c1 | > 10 µM | 0.324 µM | 0.38 µM | 0.302 µM | > 10 µM
CCc1ccc2ncnc(NCCCN3CCN(CCO)CC3)c2c1 | 9.77 µM | 5.62 µM | 6.31 µM | 5.75 µM | > 10 µM
COCCNc1nc(N[C@@H](C)c2ccccc2)c2ccccc2n1 | 8.71 µM | 3.02 µM | 5.37 µM | 2.75 µM | > 10 µM
Nc1ccnc2ccc(-c3ccc(C(=O)NCC4CCOCC4)cc3)cc12 | > 10 µM | 1.23 µM | 3.31 µM | 2.69 µM | > 10 µM
CN(C)CC12CNCC1CN(c1ccnc3cc(Cl)ccc13)C2 (stereo not given) | 0.0513 µM | 0.0417 µM | 0.0309 µM | 0.043 µM | > 10 µM
FC(F)(F)c1ccc(N2CCC[C@H](NC3CCN(Cc4ccco4)CC3)C2)nc1 | > 10 µM | 7.59 µM | 7.59 µM | 8.13 µM | > 10 µM
Cc1cc(O)c(Cl)cc1-c1cccc2c(N)ccnc12 | > 10 µM | 1.17 µM | 1.48 µM | 2.04 µM | > 10 µM
CN(C[C@H](O)COc1cccc(CNCCCOc2cccnc2)c1)C1CCCCC1 | > 10 µM | 5.13 µM | 6.17 µM | 6.92 µM | > 10 µM
NC(=O)[C@]1(O)CCN(c2ccnc3ccc(Oc4ccccc4)cc23)C1 | 7.76 µM | 3.31 µM | 3.8 µM | 3.24 µM | > 10 µM
c1cncc(-c2ccc(CNC3CCN(Cc4cccs4)CC3)cc2)c1 | 7.94 µM | 2.88 µM | 3.72 µM | 2.69 µM | > 10 µM
COc1cc2nc(NCC3(N4CCN(C)CC4)CCCC3)cc(C)c2cc1OC | 8.51 µM | 2.14 µM | 3.47 µM | 2.24 µM | > 10 µM
CN1CCN(CCNC2CCN3CCCC3C2)C(c2ccccc2)C1 (stereo not given) | > 10 µM | 4.17 µM | 4.27 µM | 3.8 µM | > 10 µM
Cc1ccc(-c2nnc(Nc3ccccc3)c3ccccc23)cc1CN1C(=O)c2ccccc2C1=O | > 10 µM | 3.8 µM | > 10 µM | 9.33 µM | > 10 µM
Cc1cc(N2CCC(NCCCN3CCCc4ccccc43)CC2)nc(N)n1 | > 10 µM | 3.09 µM | 3.63 µM | 3.72 µM | > 10 µM
CC(C)c1ccc(-c2noc(CCN3CCN(CCCN(C)C)CC3)n2)cc1 | > 10 µM | 7.94 µM | > 10 µM | 8.51 µM | > 10 µM

Now from value to molecule, other results behind:

IC50 (Plasmodium falciparum [2]) | IC50 (Plasmodium falciparum [3]) | IC50 (Plasmodium falciparum [4]) | IC50 (Plasmodium falciparum [5]) | SMILES | IC50 at 72 h [1]
3.31 µM | 2.14 µM | 4.27 µM | 3.02 µM | Cc1ocnc1CNC[C@H](O)c1ccc(Cl)c(Cl)c1 | > 10 µM
7.41 µM | 4.37 µM | 7.41 µM | 4.37 µM | Nc1ccc(Nc2ccc(F)cc2)c2ccncc12 | > 10 µM
6.76 µM | 3.16 µM | 7.76 µM | 6.31 µM | Oc1ccc(OC(F)(F)F)cc1-c1ccc2nccn2n1 | > 10 µM
0.794 µM | 0.525 µM | 0.589 µM | 0.417 µM | COc1ccc2c(N3CC[C@H](CN4CCCC4)C3)ccnc2c1 | > 10 µM
7.24 µM | 3.39 µM | 3.89 µM | 2.69 µM | Cc1cc(NCCCN2CCC[C@H](O)C2)c2cc(F)ccc2n1 | > 10 µM
0.234 µM | 0.162 µM | 0.166 µM | 0.135 µM | COCCN1CCC[C@@]2(CCN(c3ccnc4cc(Cl)ccc34)C2)C1 | > 10 µM
7.76 µM | 3.02 µM | 3.98 µM | 3.89 µM | O[C@H](COc1ccccc1CNCc1cc(-c2ccccc2)[nH]n1)CN1CCCCC1 | > 10 µM
3.31 µM | 1.17 µM | 2.45 µM | 2.4 µM | COc1ccc2nc(C)cc(NCc3cccc(NC(=O)c4ccco4)c3)c2c1 | > 10 µM
1.41 µM | 3.24 µM | > 10 µM | > 10 µM | Cn1cc(-c2cncc(C(=O)NC3CCN(c4cccc(F)c4)CC3)c2)cn1 | > 10 µM
1.82 µM | 1.38 µM | 1.51 µM | 1.45 µM | COCCN1CC[C@H](CN(C)c2ccnc3cc(Cl)ccc23)C1 | > 10 µM
6.46 µM | 4.27 µM | 7.59 µM | 5.75 µM | COc1ccc(-c2cc(C(=O)Nc3ccc(N4CCN5CCCC5C4)cc3)c3c(C)noc3n2)cc1 (stereo not given) | > 10 µM
3.63 µM | 1.41 µM | 2.24 µM | 2.19 µM | O[C@H]1CCN(Cc2ccccc2CNc2cccc(-n3ccnc3)n2)C1 | > 10 µM
3.8 µM | 1.82 µM | 2.75 µM | 2.63 µM | Clc1ccc2[nH]c3c(c2c1)CCCC3NC1CCN(C2CCOC2)CC1 (stereo not given) | 10 µM
7.24 µM | 2.34 µM | 2.57 µM | 1.78 µM | c1ccc(CN2CCC(CCNC[C@@H]3CCCN4CCCC[C@H]34)CC2)cc1 | > 10 µM
6.76 µM | 3.31 µM | 3.8 µM | 3.31 µM | CCN1CCC(N2CCC(C(=O)NCCc3ccc(OC(F)(F)F)cc3)CC2)CC1 | > 10 µM
6.61 µM | 2.63 µM | 2.57 µM | 2.63 µM | O=C(NCc1ccc(N2CCNCC2)c(F)c1)c1ccc(-c2noc(C(F)(F)F)n2)cc1 | > 10 µM
1.82 µM | 0.832 µM | 1.7 µM | 1.41 µM | c1ccc2c(Nc3ccc4[nH]cnc4c3)c3ccccc3nc2c1 | > 10 µM
2.95 µM | 5.01 µM | > 10 µM | > 10 µM | CCOc1cccc(N2CCN(C(=O)c3cc(-c4ccc(F)cc4)[nH]n3)CC2)n1 | > 10 µM
0.955 µM | 0.676 µM | 1.55 µM | 2.19 µM | O=C(Nc1cnc2c(c1)COCC2)c1cc2c(OC(F)(F)F)cccc2[nH]1 | > 10 µM
5.13 µM | 2.75 µM | 5.13 µM | 3.8 µM | O[C@@]1(c2c[nH]nn2)CCN(c2ccnc3cc(Cl)ccc23)C1 | > 10 µM
4.47 µM | 2.45 µM | 4.57 µM | 3.63 µM | Cc1ccc2[nH]c(CNC[C@@H](CO)C3CCC3)cc2c1C | > 10 µM
3.16 µM | 2.04 µM | 3.02 µM | 2.45 µM | Cc1ccc2nc(NC[C@H]3CCN(C4CC4)C3)cc(C)c2c1 | > 10 µM
3.09 µM | 1.51 µM | 1.74 µM | 1.62 µM | CCN(Cc1[nH]c2ccc(Cl)cc2c1C)CC1CCN(C2CCN(C)CC2)CC1 | > 10 µM
